The record followed here is the NIST ThermoML archive (doi:10.1021/je700119m).

Numbers after ± are expanded uncertainties.

For data set [1] the following is noted: 298.15 K, 101.33 kPa, Liquid.
Data set [2] in a line: refractive index (Na D-line) (dimensionless). To be noted: 298.15 K; 101.33 kPa; Liquid; Standard Abbe refractometry.

Take `CCC(C)=O` [butanone]: the mass density (as a rule, mass per unit of volume) in data set [1] is on record as 799.7 ± 0.6 kg/m3. In addition, in data set [2], the refractive index (in general, the speed of light in vacuum divided by its phase velocity in the sample) is reported as 1.37618 ± 0.00068.

For `CCCCn1cc[n+](C)c1.F[P-](F)(F)(F)(F)F` [1-butyl-3-methylimidazolium hexafluorophosphate], in data set [1], the mass density is given as 1367.3 ± 2.9 kg/m3. The refractive index in data set [2] came to 1.40937 ± 0.00078.

As to `COS(=O)(=O)[O-].Cn1cc[n+](C)c1` [1,3-dimethylimidazolium methylsulfate], the mass density in data set [1] was 1327.2 ± 2.7 kg/m3. Also, the refractive index in data set [2] worked out at 1.4827 ± 0.00078.

As to `CC(C)O` [propan-2-ol], the mass density in data set [1] (Vibrating tube method) was determined as 781 ± 0.4 kg/m3. For the same molecule, in data set [2], the refractive index amounted to 1.37496 ± 0.00068.

`CCO` [ethanol]: the mass density in data set [1] stood at 785.1 ± 0.5 kg/m3. Further, in data set [2], the refractive index was found to be 1.35929 ± 0.00068.
